In ChEMBL document CHEMBL1145646, “New anti-inflammatory ergostane-type ecdysteroids from the sclerotium of Polyporus umbellatus” (2008):

System: Mus musculus
Assay: Inhibition of TPA-induced inflammation in mouse assessed per ear by edema assay
Type: functional

SMILES | ID50 [µmol/ear]
CC(C)C(C)/C=C/[C@@H](C)[C@H]1CC[C@H]2C3=C[C@@H](O)[C@@]4(O)C[C@@H](O)CC[C@]4(C)[C@H]3CC[C@]12C (some centres undefined) | 0.666
COc1ccc2c(c1)c(CC(=O)O)c(C)n2C(=O)c1ccc(Cl)cc1 [INDOMETHACIN] | 0.838
CC(C)C(C)[C@H](O)[C@@H]1O[C@H]2C[C@@]3(O)C4=CC(=O)[C@@H]5C[C@@H](O)[C@@H](O)C[C@]5(C)[C@H]4CC[C@]3(C)[C@H]2[C@@]1(C)O (some centres undefined) [POLYPOROID A] | 0.531
C[C@@H]1[C@H]([C@@H](O)[C@](C)(O)[C@H]2CC[C@@]3(O)C4=CC(=O)[C@@H]5C[C@@H](O)[C@@H](O)C[C@]5(C)[C@H]4CC[C@]23C)OC[C@H]1C [POLYPOROID B] | 0.682
CC(C)C(C)C[C@@H](O)[C@](C)(O)[C@H]1[C@@H](O)C[C@@]2(O)C3=CC(=O)[C@@H]4C[C@@H](O)[C@@H](O)C[C@]4(C)[C@H]3CC[C@]12C (some centres undefined) [POLYPOROID C] | 0.184
CC(C)C(C)C[C@@H](O)[C@](C)(O)[C@H]1CC[C@@]2(O)C3=CC(=O)[C@@H]4C[C@@H](O)[C@@H](O)C[C@]4(C)[C@H]3CC[C@]12C (some centres undefined) [POLYPORUSTERONE A] | 0.141
C=C(C[C@@H](O)[C@](C)(O)[C@H]1CC[C@@]2(O)C3=CC(=O)[C@@H]4C[C@@H](O)[C@@H](O)C[C@]4(C)[C@H]3CC[C@]12C)C(C)C [POLYPORUSTERONE B] | 0.117
CC(C)C(C)C1O[C@H]1[C@](C)(O)[C@H]1CC[C@@]2(O)C3=CC(=O)[C@@H]4C[C@@H](O)[C@@H](O)C[C@]4(C)[C@H]3CC[C@]12C (some centres undefined) [POLYPORUSTERONE C] | 0.289
C=C(C[C@@H](O)[C@@H](C)[C@H]1CC[C@@]2(O)C3=CC(=O)[C@@H]4C[C@@H](O)[C@@H](O)C[C@]4(C)[C@H]3CC[C@]12C)C(C)C [POLYPORUSTERONE G] | 0.207
